Experiments:
[1] = test system: crude enzymes (CEs) of Sphingopyxis sp. USTB-05; settings: cited from earlier work
Sphingopyxis sp. USTB-05 = settings: cited from earlier work
[2] = test system: crude enzymes (CEs) of Sphingopyxis sp. USTB-05; experiment: Enzymatic biodegradation by crude enzymes (CEs) of Sphingopyxis sp. USTB-05; assay type: in vitro ADME
Description: At logarithmic growth phase of the third day, the culture solution of Sphingopyxis sp. USTB-05 was centrifuged at 8,000 r/min for 20 min, and then the supernatant was decanted. The pelleted cells were washed three times with 50 mmol/L phosphate buffer solution (PBS, pH 7.0). The harvested cells were resuspended in 20 mL PBS and disrupted using an ultrasonic disruptor with an output power of 600 W for 15 min at 4°C. The cell debris was removed by centrifugation at 12,000 r/min for 30 min. The supernatant was collected, and after handling by 3500 MWCO dialysis bag small molecules such as Tyr was removed, it was used as CEs in the enzymatic biodegradation of MC-YR and its protein profile was determined using sodium dodecyl sulfate-polyacrylamide gel electrophoresis (SDS-PAGE) on 12% polyacrylamide gel. […].
The total biodegradation reaction volume was 5 mL containing 14.8 mg/L MC-YR and 103.6 mg/L protein in PBS in a 10 mL centrifuge tube. The reaction was at 30°C with the shake rate of 200 r/min. […]
MC-YR and its enzymatic biodegradation products were firstly measured using a HPLC system (Shimadzu LC-10ATVP, Shimadzu Co., Ltd., Japan) with a ultraviolet (UV) Diode Array Detector at 238 nm and 230 nm using a Agilent TC-C18 column (4.6 mm×250 mm) (Agilent, 1200 series, USA). […]

For microcystin-LR [MC-LR], the “time to total removal by CEs of USTB-05” value [1] is given as ≤ 10 h and the “time to total removal by USTB-05” value (Sphingopyxis sp. USTB-05) is given as ≤ 20 h.

For microcystin-RR [MC-RR], the “time to complete biodegradation by Sphingopyxis sp. USTB-05” value (Sphingopyxis sp. USTB-05) is given as ≤ 36 h.

In the case of microcystin-YR [MC-YR], the “average biodegradation rate of MC-YR” value [2] is reported as 1.5 mg/L per hour and the “time to complete removal of MC-YR by CEs” value ([2]; pH 7) is reported as ≤ 10 h.

— paper PMC4412663, “Pathway for Biodegrading Microcystin-YR by Sphingopyxis sp. USTB-05” (PLoS ONE, 2015)
